Test results as given in patent US8003678B2, “Therapeutic substituted thiazolidinones, oxazolidinones, and related compounds” (Allergan, Inc., priority 2006, dated 2011).

Target: EP2 (Homo sapiens, UniProt P43116)
Assay: EP2 cAMP
Format: cell-based
Source text: U.S. patent application Ser. No. 11/553,143, filed on Oct. 26, 2006, incorporated by reference herein, describes the methods used to obtain the in vitro data in the table below.

Sequence of EP2 (P43116 whole entry): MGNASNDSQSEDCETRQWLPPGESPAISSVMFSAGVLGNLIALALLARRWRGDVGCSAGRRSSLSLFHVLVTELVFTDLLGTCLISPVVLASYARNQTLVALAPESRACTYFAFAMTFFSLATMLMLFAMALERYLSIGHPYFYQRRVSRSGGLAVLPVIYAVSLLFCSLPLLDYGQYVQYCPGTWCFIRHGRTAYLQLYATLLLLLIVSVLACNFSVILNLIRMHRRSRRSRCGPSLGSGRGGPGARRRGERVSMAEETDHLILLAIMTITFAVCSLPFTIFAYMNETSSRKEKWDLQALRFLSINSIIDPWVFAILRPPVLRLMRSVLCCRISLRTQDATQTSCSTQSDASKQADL

**Q.** CCCCCC(O)c1ccc(N2C(=O)CSC2CCCc2ccc(C(=O)O)s2)cc1 (centres unmarked) was tested. Which EC50 did it give?
**A.** The EC50 was 515 nM.

**Q.** Which EC50 does the source give for CCCCCC(O)c1ccc(N2C(=O)COC2CCCc2ccc(C(=O)O)s2)cc1 (centres unmarked) here?
**A.** The EC50 was 0.06 nM.
